Measured values taken from ChEMBL document CHEMBL1155271, “Synthesis, crystal structures and antibacterial activity studies of aza-derivatives of phytoalexin from cotton plant--gossypol” (2009).
≈ marks a conversion by molar mass, not a printed value. Calls of active or inactive are those of the source. No cut-off for these calls is given here.

What was measured:
Type in all cases: functional
[1] = tested on: Micrococcus luteus; assay: Antimicrobial activity against Micrococcus luteus ATCC 10240 by twofold dilution technique
[2] = tested on: Staphylococcus aureus; assay: Antimicrobial activity against Methicillin susceptible Staphylococcus aureus 238/7 by twofold dilution technique
[3] = tested on: Enterococcus hirae; assay: Antimicrobial activity against Enterococcus hirae ATCC 10541 at 400 ug after 18 hrs by disk diffusion method
[4] = tested on: Bacillus subtilis; assay: Antimicrobial activity against Bacillus subtilis ATCC 6633 after 18 hrs by twofold dilution technique; settings: ATCC 6633, 18 h
[5] = tested on: Staphylococcus aureus; assay: Antimicrobial activity against Staphylococcus aureus ATCC 29213 after 18 hrs by twofold dilution technique; settings: ATCC 29213, 18 h
[6] = tested on: Bacillus cereus; assay: Antimicrobial activity against Bacillus cereus ATCC 11778 after 18 hrs by twofold dilution technique; settings: ATCC 11778, 18 h
[7] = tested on: Staphylococcus aureus; assay: Antimicrobial activity against Methicillin susceptible Staphylococcus aureus 207/7 by twofold dilution technique
[8] = tested on: Staphylococcus aureus; assay: Antimicrobial activity against Methicillin susceptible Staphylococcus aureus 242/7 by twofold dilution technique
[9] = tested on: Staphylococcus aureus; assay: Antimicrobial activity against Staphylococcus aureus NCTC 4163 at 400 ug after 18 hrs by disk diffusion method; settings: NCTC 4163, 18 h, read-out: DIZ
[10] = tested on: Staphylococcus aureus; assay: Antimicrobial activity against methicillin-resistant Staphylococcus aureus 144/6 by twofold dilution technique
[11] = tested on: Staphylococcus aureus; assay: Antimicrobial activity against methicillin-resistant Staphylococcus aureus 146/6 by twofold dilution technique
[12] = tested on: Staphylococcus aureus; assay: Antimicrobial activity against Methicillin susceptible Staphylococcus aureus 213/7 by twofold dilution technique
[13] = tested on: Staphylococcus aureus; assay: Antimicrobial activity against Methicillin susceptible Staphylococcus aureus 243/7 by twofold dilution technique
[14] = tested on: Staphylococcus aureus; assay: Antimicrobial activity against methicillin-resistant Staphylococcus aureus 218/7 by twofold dilution technique
[15] = tested on: Staphylococcus epidermidis; assay: Antimicrobial activity against Staphylococcus epidermidis ATCC 12228 by twofold dilution technique
[16] = tested on: Bacillus subtilis; assay: Antimicrobial activity against Bacillus subtilis ATCC 6633 at 400 ug after 18 hrs by disk diffusion method; settings: ATCC 6633, 18 h, read-out: DIZ
[17] = tested on: Staphylococcus aureus; assay: Antimicrobial activity against methicillin-resistant Staphylococcus aureus 236/7 by twofold dilution technique
[18] = tested on: Staphylococcus aureus; assay: Antimicrobial activity against Staphylococcus aureus ATCC 6538 at 400 ug after 18 hrs by disk diffusion method; settings: ATCC 6538, 18 h, read-out: DIZ
[19] = tested on: Staphylococcus aureus; assay: Antimicrobial activity against Staphylococcus aureus ATCC 6538 after 18 hrs by twofold dilution technique; settings: ATCC 6538, 18 h
[20] = tested on: Staphylococcus aureus; assay: Antimicrobial activity against methicillin-resistant Staphylococcus aureus 140/6 by twofold dilution technique
[21] = tested on: Staphylococcus aureus; assay: Antimicrobial activity against Staphylococcus aureus ATCC 25923 at 400 ug after 18 hrs by disk diffusion method; settings: ATCC 25923, 18 h, read-out: DIZ
[22] = tested on: Staphylococcus aureus; assay: Antimicrobial activity against methicillin-resistant Staphylococcus aureus 141/6 by twofold dilution technique
[23] = tested on: Staphylococcus aureus; assay: Antimicrobial activity against Staphylococcus aureus ATCC 29213 at 400 ug after 18 hrs by disk diffusion method; settings: ATCC 29213, 18 h, read-out: DIZ
[24] = tested on: Staphylococcus aureus; assay: Antimicrobial activity against Methicillin susceptible Staphylococcus aureus 208/7 by twofold dilution technique
[25] = tested on: Staphylococcus aureus; assay: Antimicrobial activity against Methicillin susceptible Staphylococcus aureus 206/7 by twofold dilution technique
[26] = tested on: Enterococcus hirae; assay: Antimicrobial activity against Enterococcus hirae ATCC 10541 after 18 hrs by twofold dilution technique; settings: ATCC 10541, 18 h
[27] = tested on: Micrococcus luteus; assay: Antimicrobial activity against Micrococcus luteus ATCC 9341 at 400 ug after 18 hrs by disk diffusion method
[28] = tested on: Staphylococcus aureus; assay: Antimicrobial activity against Methicillin susceptible Staphylococcus aureus 237/7 by twofold dilution technique
[29] = tested on: Staphylococcus aureus; assay: Antimicrobial activity against methicillin-resistant Staphylococcus aureus 200/7 by twofold dilution technique
[30] = tested on: Staphylococcus aureus; assay: Antimicrobial activity against methicillin-resistant Staphylococcus aureus 143/6 by twofold dilution technique
[31] = tested on: Staphylococcus aureus; assay: Antimicrobial activity against Methicillin susceptible Staphylococcus aureus 239/7 by twofold dilution technique
[32] = tested on: Micrococcus luteus; assay: Antimicrobial activity against Micrococcus luteus ATCC 9341 after 18 hrs by twofold dilution technique; settings: ATCC 9341, 18 h
[33] = tested on: Staphylococcus aureus; assay: Antimicrobial activity against Staphylococcus aureus NCTC 4163 after 18 hrs by twofold dilution technique; settings: NCTC 4163, 18 h
[34] = tested on: Staphylococcus aureus; assay: Antimicrobial activity against methicillin-resistant Staphylococcus aureus 136/6 by twofold dilution technique
[35] = tested on: Bacillus cereus; assay: Antimicrobial activity against Bacillus cereus ATCC 11778 at 400 ug after 18 hrs by disk diffusion method; settings: ATCC 11778, 18 h, read-out: DIZ
[36] = tested on: Staphylococcus aureus; assay: Antimicrobial activity against Methicillin susceptible Staphylococcus aureus 212/7 by twofold dilution technique
[37] = tested on: Staphylococcus epidermidis; assay: Antimicrobial activity against Staphylococcus epidermidis ATCC 12228 at 400 ug after 18 hrs by disk diffusion method; settings: ATCC 12228, 18 h, read-out: DIZ
[38] = tested on: Staphylococcus aureus; assay: Antimicrobial activity against Staphylococcus aureus ATCC 25923 after 18 hrs by twofold dilution technique; settings: ATCC 25923, 18 h
[39] = tested on: Micrococcus luteus; assay: Antimicrobial activity against Micrococcus luteus ATCC 10240 at 400 ug after 18 hrs by disk diffusion method; settings: ATCC 10240, 18 h, read-out: DIZ
[40] = tested on: Staphylococcus aureus; assay: Antimicrobial activity against methicillin-resistant Staphylococcus aureus 217/7 by twofold dilution technique

SMILES	MIC [1]	MIC [2]	MIC [4]	MIC [5]	MIC [6]	MIC [7]	MIC [8]	zone of inhibition at 400 µg/disc [9]	MIC [10]	MIC [11]	MIC [12]	MIC [13]	MIC [14]	MIC [15]	zone of inhibition at 400 µg/disc [16]	MIC [17]	zone of inhibition at 400 µg/disc [18]	MIC [19]	MIC [20]	zone of inhibition at 400 µg/disc [21]	other results
Cc1cc2c(c(O)c1-c1c(C)cc3c(c1O)/C(=C/NCCc1cccs1)C(=O)C(O)=C3C(C)C)/C(=C/NCCc1cccs1)C(=O)C(O)=C2C(C)C	50 µg/mL (≈ 67.8 µM)	50 µg/mL (≈ 67.8 µM)	100 µg/mL (≈ 136 µM)	25 µg/mL (≈ 33.9 µM)	50 µg/mL (≈ 67.8 µM)	50 µg/mL (≈ 67.8 µM)	12.5 µg/mL (≈ 17 µM)	18 mm	50 µg/mL (≈ 67.8 µM)	50 µg/mL (≈ 67.8 µM)	25 µg/mL (≈ 33.9 µM)	50 µg/mL (≈ 67.8 µM)	50 µg/mL (≈ 67.8 µM)	100 µg/mL (≈ 136 µM)	16 mm	50 µg/mL (≈ 67.8 µM)	17 mm	25 µg/mL (≈ 33.9 µM)	50 µg/mL (≈ 67.8 µM)	18 mm	zone of inhibition at 400 µg/disc ([3]; ATCC 10541, 18 h, read-out: DIZ): 14 mm; MIC [22]: 50 µg/mL (≈ 67.8 µM); zone of inhibition at 400 µg/disc [23]: 18 mm; MIC [24]: 50 µg/mL (≈ 67.8 µM); MIC [25]: 25 µg/mL (≈ 33.9 µM); MIC [26]: 50 µg/mL (≈ 67.8 µM); zone of inhibition at 400 µg/disc ([27]; ATCC 9341, 18 h, read-out: DIZ): 12 mm; MIC [28]: 50 µg/mL (≈ 67.8 µM); MIC [29]: 50 µg/mL (≈ 67.8 µM); MIC [30]: 50 µg/mL (≈ 67.8 µM); MIC [31]: 50 µg/mL (≈ 67.8 µM); MIC [32]: 50 µg/mL (≈ 67.8 µM); MIC [33]: 50 µg/mL (≈ 67.8 µM); MIC [34]: 50 µg/mL (≈ 67.8 µM); zone of inhibition at 400 µg/disc [35]: 15 mm; MIC [36]: 25 µg/mL (≈ 33.9 µM); zone of inhibition at 400 µg/disc [37]: 21 mm; MIC [38]: 25 µg/mL (≈ 33.9 µM); zone of inhibition at 400 µg/disc [39]: 19 mm; MIC [40]: 100 µg/mL (≈ 136 µM)
COCCOCCOCCN/N=C/c1c(O)c(O)c(C(C)C)c2cc(C)c(-c3c(C)cc4c(C(C)C)c(O)c(O)c(/C=N/NCCOCCOCCOC)c4c3O)c(O)c12	400 µg/mL (≈ 477 µM)	400 µg/mL (≈ 477 µM)	> 400 µg/mL	200 µg/mL (≈ 238 µM)	100 µg/mL (≈ 119 µM)	400 µg/mL (≈ 477 µM)	100 µg/mL (≈ 119 µM)	11 mm	400 µg/mL (≈ 477 µM)	200 µg/mL (≈ 238 µM)	400 µg/mL (≈ 477 µM)	400 µg/mL (≈ 477 µM)	400 µg/mL (≈ 477 µM)	> 400 µg/mL	11 mm	100 µg/mL (≈ 119 µM)	11 mm	200 µg/mL (≈ 238 µM)	200 µg/mL (≈ 238 µM)	12 mm	diameter of the inhibition zone (DIZ) [3]: inactive; MIC [22]: 400 µg/mL (≈ 477 µM); zone of inhibition at 400 µg/disc [23]: 12 mm; MIC [24]: 400 µg/mL (≈ 477 µM); MIC [25]: 200 µg/mL (≈ 238 µM); MIC [26]: 200 µg/mL (≈ 238 µM); diameter of the inhibition zone (DIZ) [27]: inactive; MIC [28]: 400 µg/mL (≈ 477 µM); MIC [29]: 400 µg/mL (≈ 477 µM); MIC [30]: 400 µg/mL (≈ 477 µM); MIC [31]: 400 µg/mL (≈ 477 µM); MIC [32]: 400 µg/mL (≈ 477 µM); MIC [33]: 200 µg/mL (≈ 238 µM); MIC [34]: 200 µg/mL (≈ 238 µM); zone of inhibition at 400 µg/disc [35]: 12 mm; MIC [36]: 400 µg/mL (≈ 477 µM); zone of inhibition at 400 µg/disc [37]: 14 mm; MIC [38]: 200 µg/mL (≈ 238 µM); zone of inhibition at 400 µg/disc [39]: 13 mm; MIC [40]: 200 µg/mL (≈ 238 µM)
